Reference: US20220112149A1, “DRUG DESIGN METHOD ASSOCIATED WITH NATURAL PRODUCTS, PENTACYCLIC TRITERPENOID COMPOUND, PREPARATION METHOD AND APPLICATIONS THEREOF” (Huazhong Agricultural University, priority 2020, published 2022)

Assays:
[1] = system: Leptin receptor-deficient db/db mice; experiment: GA-02 in db/db mice, intraperitoneal; format: in vivo; settings: 20 mg/kg i.p., 14 days
Experimental: Eight-week-old male ob/ob and db/db mice are adapted to the environment under normal conditions for one week. The animals are grouped according to the body weight and blood glucose, 2 cages in each group, 5 animals in each cage. Mice are acclimatized with the vehicle for 3 days in the experimental group (25 μL DMSO/day) and are injected with drugs by intraperitoneal injection (20 mg/kg; 25 μL per injection). Mice in the control group are injected with the same volume of vehicle. The administration starts from 18:00 every day for 14 consecutive days. The body weight and food intake of mice are recorded every day.

[2] = system: ICAM-1 expression in HMEC-1 cells; experiment: LPS-induced ICAM-1 expression in HMEC-1 cells, flow cytometry; format: cell-based, human
Experimental: (3) Screening candidate molecules with the strongest ICAM-1 inhibitory activity by simulating the physiological model of inflammation that human microvascular endothelial cells (HMEC-1) expressing cell adhesion molecules (ICAM-1) mediate lymphocytes to penetrate blood vessels to infiltrate the damaged tissues. The specific steps are as follows:
1) Culture of HMEC-1 cells: HMEC-1 cells are cultured in MCDB131 medium (U.S. Sigma) that contain 10% fetal bovine serum (FBS, Zhejiang Tianhang Biotechnology Co., Ltd.), double antibody (100 U/mL penicillin and 100 μg/mL streptomycin), 1 μg/mL hydrocortisone (Sangon Biotech (Shanghai) Co., Ltd.) and 10 ng/mL human recombinant growth factor (hEGF, Sangon Biotech (Shanghai) Co., Ltd.) at 37° C., 5% CO2, and 100% RH.
2) HMEC-1 cells are inoculated into a 24-well plate, and cultured in a cell incubator at 37° C., 5% CO2, and 100% RH. When the cells grow to 80% abundance, different concentrations of drugs are added for 3 h (1 μM Celastrol as a positive control drug). At the end of treatment, 1 μg/mL LPS is added to activate the NF-κB signaling pathway for 12 hours. After activation, the supernatant medium is discarded, and washed three times with PBS, and 100 μL of 0.25% pancreatin (containing 0.5 mM EDTA) is added to digest in a 37° C. incubator for 3 min. When most of cells are shed, 150 μL of MCDB131 complete medium is added to terminate the digestion, shaken for 3 min, then cells are transferred to a V-shaped 96-well plate (Corning), centrifuged at 4° C., 3000 rpm for 3 min to precipitate cells. Then the supernatant medium is discarded, 100 μL of pH=7.4 buffer A (PBS+0.5% BSA+1 mM MgCl2) is added to each well, to wash once, centrifuged at 4° C., 3000 rpm for 3 min, and the buffer A is aspirated. To each well, 100 μL of PBS solution containing 5% bovine serum albumin is added, and shaken and blocked at 120 rpm for 30 min at room temperature; after blocking, centrifuged at 4° C. and 2000 rpm for 3 min, and the supernatant is discarded, 20 μl of buffer A containing 5 μg/mL of primary antibody anti-ICAM-1 antibody LB-2, shaken and incubated at room temperature at 120 rpm for 1 h, using the buffer A without adding anti-ICAM-1 antibody LB-2 as the negative control. By detecting anti-ICAM-1 fluorescence value by flow cytometry, the expression of ICAM-1 protein in HMEC-1 cells is detected indirectly. Three duplicate wells are established for each concentration. PBS is set as a blank control, 1 uM of Celastrol is set as a positive control, to analyze the inhibitory effect of different concentrations of drugs on the expression level of ICAM-1.
1) Culture of HMEC-1 cells: HMEC-1 cells are cultured in MCDB131 medium (U.S. Sigma) that contain 10% fetal bovine serum (FBS, Zhejiang Tianhang Biotechnology Co., Ltd.), double antibody (100 U/ml penicillin and 100 μg/ml streptomycin), 1 μg/ml hydrocortisone (Sangon Biotech) and 10 ng/ml human recombinant growth factor (hEGF, Sangon Biotech) at 37° C., 5% CO2, and 100% RH.
HMEC-1 cells are inoculated into a 24-well plate, and cultured in a cell incubator at 37° C., 5% CO2, and 100% RH. When the cells grow to 80% abundance, different concentrations of drugs are added for 3 h (1 μM Celastrol as a positive control drug). At the end of treatment, 1 μg/mL LPS is added to activate the NF-κB signaling pathway for 12 hours. After activation, the supernatant medium is discarded, and washed three times with PBS, and 100 μL of 0.25% pancreatin (containing 0.5 mM EDTA) is added to digest in a 37° C. incubator for 3 min. When most of cells are shed, 150 μL of MCDB131 complete medium is added to terminate the digestion, shaken for 3 min, then cells are transferred to a V-shaped 96-well plate (Corning), centrifuged at 4° C., 3000 rpm for 3 min to precipitate cells. Then the supernatant medium is discarded, 100 μL of pH=7.4 buffer A (PBS+0.5% BSA+1 mM MgCl2) is added to each well, to wash once, centrifuged at 4° C., 3000 rpm for 3 min, and the buffer A is aspirated. […]

lean mice (about 22 g) = settings: mouse, in vivo, ip
Experimental: The animal feeding and experiment method are as follows. Six-week-old SPF-grade C57BL/6 mice (purchased from Hubei Provincial Center for Disease Control and Prevention) are fed in SPF animal house at a room temperature of 22° C., 4 mice per cage. Animals are fed with ordinary mouse feeds (purchased from) for 2 consecutive weeks. Mice are free to take food and the padding is changed every two days, and the body weights and blood glucose are monitored every week. When the body weight reaches 22 g, the administration is started. The drug is dissolved in DMSO solvent and administered by intraperitoneal injection at an injection volume of 25 μL per day. In addition, a vehicle and positive drug control are established. The food intake and body weight changes of mice in each group are measured every day.

CC1(C(=O)O)CCC2(C)CCC3(C)C(=CC(=O)C4C5(C)C=C(O)C(=O)C(C)(C)C5CCC43C)C2C1 (stereo not drawn) [GA-02, 3,11-dicarbonyl-1,12-diene-2-hydroxy-oleanane-30 carboxylic acid]
body weight increase [1]: 15% | food intakes compared with the vehicle control group [1]: do not change significantly | anti-inflammatory activity compared with reference compounds [2]: effectively improved compared with 18β-glycyrrhetinic acid | anti-inflammatory activity, times lower than that of Celastrol [2]: 10 times | ICAM-1 inhibitory activity compared with Celastrol ([2]; 10 μM): equivalent to 1 μM Celastrol | ICAM-1 inhibitory activity, concentration dependence ([2]; different concentrations): concentration-dependent ICAM-1 inhibitory activity | body weights (lean mice (about 22 g)): no decrease but an upward trend | effect on the food intake and body weight (summary) (lean mice (about 22 g)): no effect | food intakes compared to the vehicle control group (lean mice (about 22 g)): no significant change
